From patent US11738033B2, “Adjunctive therapy with 25-hydroxyvitamin D and articles therefor” (priority 2014, dated 2023)
Like-named read-outs stand apart in the source and are kept apart here. One block for each compound: values may come before it.

Experiments:
[1] = Efficacy study in osteoporosis patients treated with an antiresorptive agent (denosumab); assay type: in vivo, human; conditions: for incidence of hypocalcemia and severity of secondary hyperparathyroidism: once stable dosing has been achieved, denosumab-treated
[2] = Efficacy study in patients with metastatic bone disease, prevention of SREs; assay type: in vivo, human; conditions: with denosumab or zoledronic acid
Experimental: Denosumab or zoledronic acid are administered according to the typical standard of care for each patient's condition. Patients are monitored for SREs, including by appropriate non-invasive imaging techniques, and serum markers of tumor burden and bone metabolism at 3-month intervals, and at monthly intervals for serum and urine calcium levels and plasma PTH. Cancer progression is monitored at quarterly intervals.

[3] = Efficacy study in patients with metastatic bone disease receiving an antiresorptive agent; assay type: in vivo, human; conditions: with denosumab or zoledronic acid
Experimental: Denosumab or zoledronic acid are administered according to the typical standard of care for each patient's condition. […] Samples are collected at monthly intervals for monitoring serum and urine levels of calcium, plasma levels of PTH and serum total 25-hydroxyvitamin D. Serum markers of tumor burden and bone metabolism, as well as cancer progression are assessed at 3-month intervals.

[4] = Efficacy study in prostate cancer patients treated with denosumab; assay type: in vivo, human; conditions: for incidence of hypocalcemia and severity of SHPT and hypercalcemia: once stable dosing has been achieved, denosumab-treated
[5] = assay type: in vivo, human; conditions: dose escalation phase, 30 to 300 mcg daily
Experimental: At the start of the study, all patients have plasma PTH greater than […] as evidence of SHPT, serum calcium less than 9.8 mg/dL, spot urine Ca:Cr ratio≤0.25 (≤250 mg/g creatinine) and an estimated glomerular filtration rate greater than 15 mL/min/1.73 m^2. […] Denosumab or zoledronic acid are administered according to the typical standard of care for each patient's condition.
The 52-week study consists of a 40 week dose escalation phase followed by a 12-week maintenance phase. At the end of the maintenance phase, there is a two-week follow up phase. At the start of the study, all patients receive an initial daily dose of 30 mcg 25-hydroxyvitamin D3, which is increased at four-week intervals over the course of the dose escalation phase up to a maximum daily dose of 300 mcg. The daily dose achieved by the end of the dose escalation study is the daily dose administered during the maintenance phase.
Blood samples are collected at 2-week intervals for monitoring serum levels of calcium and phosphorus. […] Serum vitamin D metabolites and markers of bone metabolism, immune function, and tumor burden are measured at the beginning of the dose escalation phase and at the beginning and end of the maintenance phase. […] The genotype of vitamin D binding protein is determined for each subject at the beginning of the dose escalation phase.

[6] = Efficacy study in breast cancer patients treated with denosumab; assay type: in vivo, human; conditions: for incidence of hypocalcemia and severity of secondary hyperparathyroidism: once stable dosing has been achieved, denosumab-treated
[7] = patients with bone metastases; cited from earlier work
[8] = after 24 months, with denosumab, vs denosumab and Vitamin D3
[9] = 24-month studies, compared to placebo
[10] = compared to antiresorptive plus placebo
[11] = 6-month study, compared to placebo

serum levels of 25-hydroxyvitamin D3 [4, 8]: higher and more consistent
SMILES: C=C1CC[C@H](O)C/C1=C/C=C1\CCC[C@]2(C)[C@@H]([C@H](C)CCCC(C)(C)O)CC[C@@H]12 [25-hydroxyvitamin D3]
increases in bone mineral density [1, 8]: larger increases
serum PTH levels [1, 8]: lower
incidence of hypocalcemia and severity of secondary hyperparathyroidism [1]: markedly reduced
increase in serum calcium [2, 9]: greater increase
plasma PTH [2, 9]: decrease
risk of hypocalcemia [2, 9]: reduced risk
time to additional bone metastasis or SRE [2, 10]: increased delay
increase in serum calcium [3, 11]: greater increase
plasma PTH [3, 11]: decrease
risk of hypocalcemia [3, 11]: reduced risk
time to additional bone metastasis [3, 10]: increased delay
incidence of hypocalcemia [4, 8]: significantly lower
increases in bone mineral density [4, 8]: larger increases
serum PTH levels [4, 8]: lower
time to first post-treatment SRE [4, 8]: significantly delayed
incidence of hypocalcemia and severity of SHPT and hypercalcemia [4]: markedly reduced
plasma PTH [5]: decreases
incidence of hypocalcemia [6, 8]: significantly lower
increases in bone mineral density [6, 8]: larger increases
serum PTH levels [6, 8]: lower
time to additional bone metastasis [6, 8]: significantly delayed
incidence of hypocalcemia and severity of secondary hyperparathyroidism [6]: markedly reduced

SMILES: C=C1CC[C@H](O)C/C1=C/C=C1\CCC[C@]2(C)[C@@H]([C@H](C)CCCC(C)C)CC[C@@H]12 [Vitamin D3, cholecalciferol]
incidence of hypocalcemia and severity of secondary hyperparathyroidism [1]: occur more frequently
incidence of hypocalcemia and severity of SHPT and hypercalcemia [4]: more frequently
incidence of hypocalcemia and severity of secondary hyperparathyroidism [6]: occur more frequently

SMILES: O=P(O)(O)C(O)(Cn1ccnc1)P(=O)(O)O [zoledronic acid]
patients who developed hypocalcemia [7]: 39%
